Laboratory results from patent publication US20250051277A1, “DELIVERY OF THERAPEUTIC ALKALOID COMPOUNDS” (Sensorium Therapeutics, Inc., priority 2021, published 2025).
Where two headings read alike, the source gives them in different places.

Key:
[1] = assay type: physicochemical; details: SGF with pepsin, pH 1.5, 37° C., 0.5 mM
[2] = assay type: physicochemical; details: DI water, 25° C., 0.5 mM

COc1ccc([C@@]23CC/C(=N\NC(=O)C4(C(=O)O)CC4)C[C@@H]2N(C)CC3)cc1OC [Compound 243, 1-[[[(3aS,7aS)-3a-(3,4-dimethoxyphenyl)-1-methyl-2,3,4,5,7,7a-hexahydroindol-6-ylidene]amino]carbamoyl]cyclopropanecarboxylic acid]
Condition 1 Conversion (%) ([1]; time 1 min): 80.17%
Condition 1 Conversion (%) ([1]; time 5 min): 100%
Condition 1 Conversion (%) ([1]; time 30 min): 100%
Condition 1 Conversion (%) ([1]; time 1 h): 100%
Condition 1 Conversion (%) ([1]; time 4 h): 100%
Condition 1 Conversion (%) ([1]; time 24 h): 100%
Condition 2 Conversion (%) ([2]; time 1 min): 0%
Condition 2 Conversion (%) ([2]; time 5 min): 0%
Condition 2 Conversion (%) ([2]; time 30 min): 0%
Condition 2 Conversion (%) ([2]; time 1 h): 0%
Condition 2 Conversion (%) ([2]; time 4 h): 27.04%
Condition 2 Conversion (%) ([2]; time 24 h): 46.78%

COc1ccc([C@@]23CC/C(=N/NC(=O)Nc4ccccc4Cl)C[C@@H]2N(C)CC3)cc1OC [Compound 270, 1-[(Z)-[(3aS,7aS)-3a-(3,4-dimethoxyphenyl)-1-methyl-2,3,4,5,7,7a-hexahydroindol-6-ylidene]amino]-3-(2-chlorophenyl)urea]
Condition 1 Conversion (%) ([1]; time 1 min): 0%
Condition 1 Conversion (%) ([1]; time 5 min): 0%
Condition 1 Conversion (%) ([1]; time 30 min): 1%
Condition 1 Conversion (%) ([1]; time 1 h): 1%
Condition 2 Conversion (%) ([2]; time 1 min): 0%
Condition 2 Conversion (%) ([2]; time 5 min): 0%
Condition 2 Conversion (%) ([2]; time 30 min): 0%
Condition 2 Conversion (%) ([2]; time 1 h): 0%

COc1ccc([C@@]23CCC(=NOCCO)C[C@@H]2N(C)CC3)cc1OC [Compound 203, 2-[[(3aS,7aS)-3a-(3,4-dimethoxyphenyl)-1-methyl-2,3,4,5,7,7a-hexahydroindol-6-ylidene]amino]oxyethanol]
Condition 1 Conversion (%) ([1]; time 1 min): 0%
Condition 1 Conversion (%) ([1]; time 5 min): 0%
Condition 1 Conversion (%) ([1]; time 30 min): 0%
Condition 1 Conversion (%) ([1]; time 1 h): 0%
Condition 1 Conversion (%) ([1]; time 4 h): 18.58%
Condition 1 Conversion (%) ([1]; time 24 h): 26.48%
Condition 2 Conversion (%) ([2]; time 1 min): 0%
Condition 2 Conversion (%) ([2]; time 5 min): 0%
Condition 2 Conversion (%) ([2]; time 30 min): 0%
Condition 2 Conversion (%) ([2]; time 1 h): 0%
Condition 2 Conversion (%) ([2]; time 4 h): 0%
Condition 2 Conversion (%) ([2]; time 24 h): 0%

COc1ccc([C@@]23CCC(=NOc4ccccc4)C[C@@H]2N(C)CC3)cc1OC [Compound 207, (3aS,7aS)-3a-(3,4-dimethoxyphenyl)-1-methyl-N-phenoxy-2,3,4,5,7,7a-hexahydroindol-6-imine]
Condition 1 Conversion (%) ([1]; time 1 min): 0%
Condition 1 Conversion (%) ([1]; time 5 min): 0%
Condition 1 Conversion (%) ([1]; time 30 min): 0%
Condition 1 Conversion (%) ([1]; time 1 h): 0%
Condition 1 Conversion (%) ([1]; time 4 h): 1.5%
Condition 1 Conversion (%) ([1]; time 24 h): 7.9%
Condition 2 Conversion (%) ([2]; time 1 min): 0%
Condition 2 Conversion (%) ([2]; time 5 min): 0%
Condition 2 Conversion (%) ([2]; time 30 min): 0%
Condition 2 Conversion (%) ([2]; time 1 h): 0%
Condition 2 Conversion (%) ([2]; time 4 h): 0%
Condition 2 Conversion (%) ([2]; time 24 h): 0%

COc1ccc([C@@]23CCC(=NOCc4ccccc4)C[C@@H]2N(C)CC3)cc1OC [Compound 208, (3aS,7aS)-N-benzyloxy-3a-(3,4-dimethoxyphenyl)-1-methyl-2,3,4,5,7,7a-hexahydroindol-6-imine]
Condition 1 Conversion (%) ([1]; time 1 min): 0%
Condition 1 Conversion (%) ([1]; time 5 min): 0%
Condition 1 Conversion (%) ([1]; time 30 min): 0%
Condition 1 Conversion (%) ([1]; time 1 h): 0%
Condition 1 Conversion (%) ([1]; time 4 h): 11.5%
Condition 1 Conversion (%) ([1]; time 24 h): 12%
Condition 2 Conversion (%) ([2]; time 1 min): 0%
Condition 2 Conversion (%) ([2]; time 5 min): 0%
Condition 2 Conversion (%) ([2]; time 30 min): 0%
Condition 2 Conversion (%) ([2]; time 1 h): 0%
Condition 2 Conversion (%) ([2]; time 4 h): 0%
Condition 2 Conversion (%) ([2]; time 24 h): 0%

COc1ccc([C@@]23CC/C(=N\NC(=O)CCC(=O)O)C[C@@H]2N(C)CC3)cc1OC [Compound 245, 4-[2-[(3aS,7aS)-3a-(3,4-dimethoxyphenyl)-1-methyl-2,3,4,5,7,7a-hexahydroindol-6-ylidene]hydrazino]-4-oxo-butanoic acid]
Condition 1 Conversion (%) ([1]; time 1 min): 60%
Condition 1 Conversion (%) ([1]; time 5 min): 100%
Condition 1 Conversion (%) ([1]; time 30 min): 100%
Condition 1 Conversion (%) ([1]; time 1 h): 100%
Condition 1 Conversion (%) ([1]; time 4 h): 100%
Condition 1 Conversion (%) ([1]; time 24 h): 100%
Condition 2 Conversion (%) ([2]; time 1 min): 25%
Condition 2 Conversion (%) ([2]; time 5 min): 35%
Condition 2 Conversion (%) ([2]; time 30 min): 50%
Condition 2 Conversion (%) ([2]; time 1 h): 100%
Condition 2 Conversion (%) ([2]; time 4 h): 100%
Condition 2 Conversion (%) ([2]; time 24 h): 100%

COc1ccc([C@@]23CCC(=NNC(=O)Nc4cccnc4)C[C@@H]2N(C)CC3)cc1OC [Compound 299, 1-[[(3aS,7aS)-3a-(3,4-dimethoxyphenyl)-1-methyl-2,3,4,5,7,7a-hexahydroindol-6-ylidene]amino]-3-(3-pyridyl)urea]
Condition 1 Conversion (%) ([1]; time 1 min): 53%
Condition 1 Conversion (%) ([1]; time 5 min): 100%
Condition 1 Conversion (%) ([1]; time 30 min): 100%
Condition 1 Conversion (%) ([1]; time 1 h): 100%
Condition 1 Conversion (%) ([1]; time 4 h): 100%
Condition 1 Conversion (%) ([1]; time 24 h): 100%
Condition 2 Conversion (%) ([2]; time 1 min): 0%
Condition 2 Conversion (%) ([2]; time 5 min): 0%
Condition 2 Conversion (%) ([2]; time 30 min): 0%
Condition 2 Conversion (%) ([2]; time 1 h): 0%
Condition 2 Conversion (%) ([2]; time 4 h): 8%
Condition 2 Conversion (%) ([2]; time 24 h): 13%

COc1ccc([C@@]23CC/C(=N\NC(=O)Nc4ccccc4Cl)C[C@@H]2N(C)CC3)cc1OC [Compound 249, 1-[(E)-[(3aS,7aS)-3a-(3,4-dimethoxyphenyl)-1-methyl-2,3,4,5,7,7a-hexahydroindol-6-ylidene]amino]-3-(2-chlorophenyl)urea]
Condition 1 Conversion (%) ([1]; time 1 min): 0%
Condition 1 Conversion (%) ([1]; time 5 min): 70.48%
Condition 1 Conversion (%) ([1]; time 30 min): 96.4%
Condition 1 Conversion (%) ([1]; time 1 h): 96.5%
Condition 1 Conversion (%) ([1]; time 4 h): 96.72%
Condition 1 Conversion (%) ([1]; time 24 h): 96.8%
Condition 2 Conversion (%) ([2]; time 1 min): 0%
Condition 2 Conversion (%) ([2]; time 5 min): 0%
Condition 2 Conversion (%) ([2]; time 30 min): 0%
Condition 2 Conversion (%) ([2]; time 1 h): 0%
Condition 2 Conversion (%) ([2]; time 4 h): 9.23%
Condition 2 Conversion (%) ([2]; time 24 h): 24.65%

COc1ccc([C@]23CCN(C)[C@H]2CC(OC)(OC)CC3)cc1OC (stereo in doubt) [Compound 190, 3a-(3,4-dimethoxyphenyl)-6,6-dimethoxy-1-methyl-2,3,4,5,7,7a-hexahydroindole]
Condition 1 Conversion (%) ([1]; time 1 min): 0%
Condition 1 Conversion (%) ([1]; time 5 min): 8.30%
Condition 1 Conversion (%) ([1]; time 30 min): 82.97%
Condition 1 Conversion (%) ([1]; time 1 h): 100%
Condition 1 Conversion (%) ([1]; time 4 h): 100%
Condition 1 Conversion (%) ([1]; time 24 h): 100%
Condition 2 Conversion (%) ([2]; time 1 min): 0%
Condition 2 Conversion (%) ([2]; time 5 min): 0%
Condition 2 Conversion (%) ([2]; time 30 min): 0%
Condition 2 Conversion (%) ([2]; time 1 h): 0%
Condition 2 Conversion (%) ([2]; time 4 h): 0%
Condition 2 Conversion (%) ([2]; time 24 h): 0%

COc1ccc(NC(=O)NN=C2CC[C@@]3(c4ccc(OC)c(OC)c4)CCN(C)[C@H]3C2)cc1 [Compound 254, 1-[[(3aS,7aS)-3a-(3,4-dimethoxyphenyl)-1-methyl-2,3,4,5,7,7a-hexahydroindol-6-ylidene]amino]-3-(4-methoxyphenyl)urea]
Condition 1 Conversion (%) ([1]; time 1 min): 0%
Condition 1 Conversion (%) ([1]; time 5 min): 2.4%
Condition 1 Conversion (%) ([1]; time 30 min): 84.7%
Condition 1 Conversion (%) ([1]; time 1 h): 91.9%
Condition 1 Conversion (%) ([1]; time 4 h): 91.9%
Condition 1 Conversion (%) ([1]; time 24 h): 92%
Condition 2 Conversion (%) ([2]; time 1 min): 0%
Condition 2 Conversion (%) ([2]; time 5 min): 0%
Condition 2 Conversion (%) ([2]; time 30 min): 0%
Condition 2 Conversion (%) ([2]; time 1 h): 1.1%
Condition 2 Conversion (%) ([2]; time 4 h): 16.2%
Condition 2 Conversion (%) ([2]; time 24 h): 17.6%

COc1ccc([C@@]23CCC(=NNC(C)=O)C[C@@H]2N(C)CC3)cc1OC [Compound 222, N-[[(3aS,7aS)-3a-(3,4-dimethoxyphenyl)-1-methyl-2,3,4,5,7,7a-hexahydroindol-6-ylidene]amino]acetamide]
Condition 1 Conversion (%) ([1]; time 1 min): 100%
Condition 1 Conversion (%) ([1]; time 5 min): 100%
Condition 1 Conversion (%) ([1]; time 30 min): 100%
Condition 1 Conversion (%) ([1]; time 1 h): 100%
Condition 1 Conversion (%) ([1]; time 4 h): 100%
Condition 1 Conversion (%) ([1]; time 24 h): 100%
Condition 2 Conversion (%) ([2]; time 1 min): 10%
Condition 2 Conversion (%) ([2]; time 5 min): 20%
Condition 2 Conversion (%) ([2]; time 30 min): 50%
Condition 2 Conversion (%) ([2]; time 1 h): 100%
Condition 2 Conversion (%) ([2]; time 4 h): 100%
Condition 2 Conversion (%) ([2]; time 24 h): 100%

COc1ccc([C@@]23CCC(=NOCCC45CC6CC(CC(C6)C4)C5)C[C@@H]2N(C)CC3)cc1OC [Compound 276, (3aS,7aS)-N-[2-(1-adamantyl)ethoxy]-3a-(3,4-dimethoxyphenyl)-1-methyl-2,3,4,5,7,7a-hexahydroindol-6-imine]
Condition 1 Conversion (%) ([1]; time 1 min): 0%
Condition 1 Conversion (%) ([1]; time 5 min): 0%
Condition 1 Conversion (%) ([1]; time 30 min): 0%
Condition 1 Conversion (%) ([1]; time 1 h): 2.77%
Condition 1 Conversion (%) ([1]; time 4 h): 5.48%
Condition 1 Conversion (%) ([1]; time 24 h): 5.5%
Condition 2 Conversion (%) ([2]; time 1 min): 0%
Condition 2 Conversion (%) ([2]; time 5 min): 0%
Condition 2 Conversion (%) ([2]; time 30 min): 0%
Condition 2 Conversion (%) ([2]; time 1 h): 0%
Condition 2 Conversion (%) ([2]; time 4 h): 0%
Condition 2 Conversion (%) ([2]; time 24 h): 0%

COc1ccc([C@@]23CCC(=NNC(=O)CC(CC(=O)O)CC(C)C)C[C@@H]2N(C)CC3)cc1OC (stereo partly drawn) [Compound 242, 3-[2-[2-[(3aS,7aS)-3a-(3,4-dimethoxyphenyl)-1-methyl-2,3,4,5,7,7a-hexahydroindol-6-ylidene]hydrazino]-2-oxo-ethyl]-5-methyl-hexanoic acid]
Condition 1 Conversion (%) ([1]; time 1 min): 75.01%
Condition 1 Conversion (%) ([1]; time 5 min): 95.02%
Condition 1 Conversion (%) ([1]; time 30 min): 96.13%
Condition 1 Conversion (%) ([1]; time 1 h): 97.72%
Condition 1 Conversion (%) ([1]; time 4 h): 98.02%
Condition 1 Conversion (%) ([1]; time 24 h): 98.34%
Condition 2 Conversion (%) ([2]; time 1 min): 33.46%
Condition 2 Conversion (%) ([2]; time 5 min): 36.51%
Condition 2 Conversion (%) ([2]; time 30 min): 38.53%
Condition 2 Conversion (%) ([2]; time 1 h): 40.8%
Condition 2 Conversion (%) ([2]; time 4 h): 55.46%
Condition 2 Conversion (%) ([2]; time 24 h): 55.7%
